{"source": "patent US5149711A", "about": "“2-cyclopentenone derivatives” (Teijin Limited, priority 1988, dated 1992)", "key": {"[1]": {"test_system": "L1210 leukemia cells", "assay": "Measurement of the action of inhibiting proliferation of L1210 leukemia cell", "assay_type": "cell-based", "conditions": "Mus musculus, L1210, 96 h; RPMI medium with 10% FCS, 37° C., 4 days, trypan blue count of surviving cells", "description": "(1) Measurement of the action of inhibiting Proliferation of L1210 leukemia cell\nL1210 leukemia cells were added to an RPMI medium containing 10% FCS (fetal calf serum), and the concentration of the cells was adjusted to […]. Each of the test compounds shown in Table I was dissolved in 99.5% ethanol. Prior to use, the final concentration of the ethanol solution was adjusted to less than 0.1%, and it was added to the culture medium. The culture medium was then maintained at 37° C. in a stationary condition for 4 days. After the cultivation, the number of surviving cells was measured by dyeing with trypan blue. As a control, 0.1% ethanol was used. A dose-reaction curve plotted from the ratios of proliferation against the control, and IC50 was determined."}, "[2]": {"test_system": "P388 mouse leukemia cells", "assay": "Measurement of the antitumor effect on P388 mouse leukemia tumor (increase of life span)", "assay_type": "in vivo", "conditions": "intraperitoneal, 9 days, BDF1 mice", "description": "(2) Measurement of the antitumor effect on P338 mouse leukemia tumor\n1×10^6 P388 mouse leukemia cells were intraperitoneally administered to BDF1 mice. After the lapse of 24 hours, each of the test compounds shown in Table II was intraperitoneally administered to the mice for 9 days. The periods of survival of these animals were examined and the increase of their life span (ILS %) was determined."}, "[3]": {"test_system": "B16 melanoma", "assay": "Measurement of the antitumor effect on B16 melanoma mouse tumor (tumor weight)", "assay_type": "in vivo", "conditions": "intraperitoneal, day 1-9, tumor weight on day 18, BDF1 mice", "description": "(3) Measurement of the antitumor effect on B16 melanoma mouise tumor\nFor B16 melanoma, BDF1 mice were implanted subcutaneously with 0.2 ml of a 10% tumor homogenate in saline in the left flank. The test compounds were each given intraperitoneally on day 1-9. The activity was assessed by measuring the tumor weight on day 18."}}}
{"compound": "O=C1C=CC(O)(CCCCOc2ccccc2)C1=C/C=C/[C@H](O)[C@H](O)CO", "note": "(stereo partly drawn) [5-[(4S,5R)-4,5,6-trihydroxy-2-hexenylidene]-4-(4-phenoxybutyl)-4-hydroxy-2-cyclopentenone]", "values": [{"measurement": "IC50", "setting": "[1]", "value": 0.8, "unit": "µg/mL"}, {"measurement": "increase of life span (ILS)", "setting": "[2]; 5 mg/kg/day", "value": 24.5, "unit": "%"}, {"measurement": "increase of life span (ILS)", "setting": "[2]; 10 mg/kg/day", "value": 32.7, "unit": "%"}, {"measurement": "increase of life span (ILS)", "setting": "[2]; 20 mg/kg/day", "value": 44.9, "unit": "%"}]}
{"compound": "O=C1C=CC(O)(CCCCOc2ccccc2)/C1=C\\C=C\\C(O)CCCO", "note": "(stereo not shown) [5-[(E)-4,7-dihydroxy-(2E)-heptenylidene]-4-(4-phenoxybutyl)-4-hydroxy-2-cyclopentenone, reference compound]", "values": [{"measurement": "Proliferation inhibitory rate", "setting": "[3]; 5 mg/kg/day", "value": -13.5, "unit": "%"}, {"measurement": "Proliferation inhibitory rate", "setting": "[3]; 10 mg/kg/day", "value": 32.7, "unit": "%"}, {"measurement": "increase of life span (ILS)", "setting": "[2]; 5 mg/kg/day", "value": 21.4, "unit": "%"}, {"measurement": "increase of life span (ILS)", "setting": "[2]; 10 mg/kg/day", "value": 31.2, "unit": "%"}, {"measurement": "increase of life span (ILS)", "setting": "[2]; 20 mg/kg/day", "value": -69.2, "unit": "%"}]}
{"compound": "CC(=O)OC[C@@H](OC(C)=O)[C@H](/C=C/C=C1C(=O)C=CC1(O)CCCCOc1ccccc1)OC(C)=O", "note": "(stereo partly drawn) [5-[(4S,5R)-4,5,6-triacetoxy-2-hexenylidene]-4-(4-phenoxybutyl)-4-hydroxy-2-cyclopentenone]", "values": [{"measurement": "IC50", "setting": "[1]", "value": 0.1, "unit": "µg/mL"}]}
{"compound": "CC(=O)OC[C@@H](O)[C@H](/C=C/C=C1C(=O)C=CC1(O)CCCCOc1ccccc1)OC(C)=O", "note": "(stereo partly drawn) [5-[(4S,5R)-4,6-diacetoxy-5-hydroxy-2-hexenylidene]-4-(4-phenoxybutyl)-4-hydroxy-2-cyclopentenone]", "values": [{"measurement": "IC50", "setting": "[1]", "value": 0.2, "unit": "µg/mL"}, {"measurement": "Proliferation inhibitory rate", "setting": "[3]; 5 mg/kg/day", "value": 9.6, "unit": "%"}, {"measurement": "Proliferation inhibitory rate", "setting": "[3]; 10 mg/kg/day", "value": 45.5, "unit": "%"}]}
